Assay results taken from ChEMBL document CHEMBL1201862, “PubChem BioAssay data set” (2004).
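48-hour exposure; five concentrations; linearly interpolated endpoints. GI50: concentration for 50% inhibition of growth.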 The source made the active and inactive calls. No stated cut-off is given here; in the data, active = GI50 up to about 1.1 µM and inactive = higher.

Columns and labels:
Assay in all cases: inhibition of tumour cell growth, NCI panel, 48 h
OVCAR-8 = tested on: OVCAR-8
SN12C = tested on: SN12C
COLO 205 = tested on: COLO 205
SF-295 = tested on: SF-295
UACC-257 = tested on: UACC-257
HOP-62 = tested on: HOP-62
HCC 2998 = tested on: HCC 2998
HCT-15 = tested on: HCT-15
OVCAR-3 = tested on: OVCAR-3
MOLT-4 = tested on: MOLT-4
IGROV-1 = tested on: IGROV-1
Malme-3M = tested on: Malme-3M
M19-MEL = tested on: M19-MEL
DLD-1 = tested on: DLD-1
SF-268 = tested on: SF-268
M14 = tested on: M14
NCI-H460 = tested on: NCI-H460
EKVX = tested on: EKVX
NCI-H23 = tested on: NCI-H23
OVCAR-4 = tested on: OVCAR-4
RXF 393 = tested on: RXF 393
OVCAR-5 = tested on: OVCAR-5
SNB-19 = tested on: SNB-19
SNB-78 = tested on: SNB-78
LXFL 529 = tested on: LXFL 529
HL-60 = tested on: HL-60
UO-31 = tested on: UO-31
CAKI-1 = tested on: CAKI-1
TK-10 = tested on: TK-10
XF498 = tested on: XF498
NCI-H522 = tested on: NCI-H522
KM12 = tested on: KM12
RPMI-8226 = tested on: RPMI-8226
A549 = tested on: A549
HOP-92 = tested on: HOP-92
SK-MEL-2 = tested on: SK-MEL-2
DMS-114 = tested on: DMS-114
CCRF-CEM = tested on: CCRF-CEM
UACC-62 = tested on: UACC-62
K562 = tested on: K562
SK-MEL-5 = tested on: SK-MEL-5
SW-620 = tested on: SW-620
KM-20L2 = tested on: KM-20L2
SK-MEL-28 = tested on: SK-MEL-28
LOX IMVI = tested on: LOX IMVI
786-0 = tested on: 786-0
SK-OV-3 = tested on: SK-OV-3
SNB-75 = tested on: SNB-75
ACHN = tested on: ACHN
U-251 = tested on: U-251
A498 = tested on: A498
SF-539 = tested on: SF-539
HCT-116 = tested on: HCT-116
DMS-273 = tested on: DMS-273
NCI-H226 = tested on: NCI-H226
HT-29 = tested on: HT-29
HOP-18 = tested on: HOP-18
SR = tested on: SR

O=C1CCSC2=C1SCc1sccc12
GI50 (OVCAR-8): > 100 µM (inactive)
GI50 (SN12C): > 100 µM (inactive)
GI50 (COLO 205): > 100 µM (inactive)
GI50 (SF-295): > 100 µM (inactive)
GI50 (UACC-257): > 100 µM (inactive)
GI50 (HOP-62): > 100 µM (inactive)
GI50 (HCC 2998): > 100 µM (inactive)
GI50 (HCT-15): > 100 µM
GI50 (OVCAR-3): > 100 µM (inactive)
GI50 (MOLT-4): > 100 µM (inactive)
GI50 (IGROV-1): > 100 µM (inactive)
GI50 (Malme-3M): > 100 µM (inactive)
GI50 (M19-MEL): > 100 µM (inactive)
GI50 (DLD-1): > 100 µM (inactive)
GI50 (SF-268): > 100 µM (inactive)
GI50 (M14): > 100 µM (inactive)
GI50 (NCI-H460): > 100 µM (inactive)
GI50 (EKVX): 93.5 µM (inactive)
GI50 (NCI-H23): > 100 µM (inactive)
GI50 (OVCAR-4): > 100 µM (inactive)
GI50 (RXF 393): > 100 µM (inactive)
GI50 (OVCAR-5): > 100 µM (inactive)
GI50 (SNB-19): > 100 µM (inactive)
GI50 (SNB-78): > 100 µM (inactive)
GI50 (LXFL 529): > 100 µM (inactive)
GI50 (HL-60): > 100 µM (inactive)
GI50 (UO-31): > 100 µM (inactive)
GI50 (CAKI-1): > 100 µM (inactive)
GI50 (TK-10): > 100 µM (inactive)
GI50 (XF498): > 100 µM (inactive)
GI50 (NCI-H522): > 100 µM (inactive)
GI50 (KM12): > 100 µM (inactive)
GI50 (RPMI-8226): 79.3 µM (inactive)
GI50 (A549): > 100 µM (inactive)
GI50 (HOP-92): > 100 µM (inactive)
GI50 (SK-MEL-2): > 100 µM (inactive)
GI50 (DMS-114): > 100 µM (inactive)
GI50 (CCRF-CEM): > 100 µM (inactive)
GI50 (UACC-62): > 100 µM (inactive)
GI50 (K562): > 100 µM (inactive)
GI50 (SK-MEL-5): > 100 µM (inactive)
GI50 (SW-620): > 100 µM (inactive)
GI50 (KM-20L2): > 100 µM (inactive)
GI50 (SK-MEL-28): > 100 µM (inactive)
GI50 (LOX IMVI): > 100 µM (inactive)
GI50 (786-0): > 100 µM (inactive)
GI50 (SK-OV-3): > 100 µM (inactive)
GI50 (SNB-75): 30.5 µM (inactive)

Cc1ccc(C2=C(c3ccccc3)C(O)(c3ccc(C)cc3)C(c3ccccc3)=C2c2ccc(C)cc2)cc1
GI50 (OVCAR-8): > 100 µM (inactive)
GI50 (SN12C): > 100 µM (inactive)
GI50 (ACHN): > 100 µM (inactive)
GI50 (COLO 205): > 100 µM (inactive)
GI50 (SF-295): > 100 µM (inactive)
GI50 (UACC-257): > 100 µM (inactive)
GI50 (HOP-62): > 100 µM (inactive)
GI50 (U-251): > 100 µM (inactive)
GI50 (HCC 2998): > 100 µM (inactive)
GI50 (HCT-15): > 100 µM
GI50 (OVCAR-3): 69 µM (inactive)
GI50 (MOLT-4): > 100 µM (inactive)
GI50 (IGROV-1): > 100 µM (inactive)
GI50 (Malme-3M): > 100 µM (inactive)
GI50 (M19-MEL): > 100 µM (inactive)
GI50 (DLD-1): > 100 µM (inactive)
GI50 (SF-268): > 100 µM (inactive)
GI50 (A498): > 100 µM (inactive)
GI50 (SF-539): > 100 µM (inactive)
GI50 (M14): 82 µM (inactive)
GI50 (NCI-H460): > 100 µM (inactive)
GI50 (EKVX): 72.1 µM (inactive)
GI50 (NCI-H23): 1.91 µM (inactive)
GI50 (OVCAR-4): > 100 µM (inactive)
GI50 (OVCAR-5): > 100 µM (inactive)
GI50 (SNB-19): > 100 µM (inactive)
GI50 (SNB-78): > 100 µM (inactive)
GI50 (HCT-116): > 100 µM (inactive)
GI50 (LXFL 529): 60.1 µM (inactive)
GI50 (HL-60): 14.4 µM (inactive)
GI50 (CAKI-1): 99.5 µM (inactive)
GI50 (TK-10): > 100 µM (inactive)
GI50 (XF498): > 100 µM (inactive)
GI50 (KM12): > 100 µM (inactive)
GI50 (RPMI-8226): 54.6 µM (inactive)
GI50 (A549): > 100 µM (inactive)
GI50 (HOP-92): > 100 µM (inactive)
GI50 (SK-MEL-2): > 100 µM (inactive)
GI50 (DMS-114): > 100 µM (inactive)
GI50 (CCRF-CEM): > 100 µM (inactive)
GI50 (UACC-62): > 100 µM (inactive)
GI50 (K562): > 100 µM (inactive)
GI50 (DMS-273): > 100 µM (inactive)
GI50 (SK-MEL-5): > 100 µM (inactive)
GI50 (SW-620): > 100 µM (inactive)
GI50 (KM-20L2): > 100 µM (inactive)
GI50 (SK-MEL-28): > 100 µM (inactive)
GI50 (LOX IMVI): > 100 µM (inactive)
GI50 (786-0): > 100 µM (inactive)
GI50 (SK-OV-3): > 100 µM (inactive)

COc1cc(CNC2c3cc4c(cc3C(c3cc(OC)c(OC)c(OC)c3)[C@H]3C(=O)OCC23)OCO4)cc(OC)c1OC (stereo partly specified)
GI50 (OVCAR-8): 0.247 µM (active)
GI50 (SN12C): 0.376 µM (active)
GI50 (ACHN): 0.42 µM (active)
GI50 (COLO 205): 0.18 µM (active)
GI50 (SF-295): 0.137 µM (active)
GI50 (UACC-257): > 100 µM (inactive)
GI50 (HOP-62): 0.231 µM (active)
GI50 (U-251): 0.318 µM (active)
GI50 (HCC 2998): 0.305 µM (active)
GI50 (HCT-15): 0.324 µM
GI50 (OVCAR-3): 0.627 µM (active)
GI50 (MOLT-4): 0.367 µM (active)
GI50 (NCI-H226): 0.128 µM (active)
GI50 (IGROV-1): 1.1 µM (active)
GI50 (Malme-3M): > 100 µM (inactive)
GI50 (M19-MEL): 1.28 µM (inactive)
GI50 (DLD-1): 0.41 µM (active)
GI50 (HT-29): 0.335 µM (active)
GI50 (SF-268): 0.372 µM (active)
GI50 (A498): 0.254 µM (active)
GI50 (SF-539): 0.191 µM (active)
GI50 (M14): 0.447 µM (active)
GI50 (HOP-18): 55.5 µM (inactive)
GI50 (NCI-H460): 0.29 µM (active)
GI50 (NCI-H23): 0.267 µM (active)
GI50 (RXF 393): 0.308 µM (active)
GI50 (OVCAR-5): > 100 µM (inactive)
GI50 (SNB-19): 0.272 µM (active)
GI50 (HCT-116): 0.245 µM (active)
GI50 (LXFL 529): 0.356 µM (active)
GI50 (HL-60): 0.223 µM (active)
GI50 (UO-31): 0.792 µM (active)
GI50 (TK-10): > 100 µM (inactive)
GI50 (XF498): 0.364 µM (active)
GI50 (NCI-H522): 0.0661 µM (active)
GI50 (KM12): 0.177 µM (active)
GI50 (RPMI-8226): 0.419 µM (active)
GI50 (A549): 0.417 µM (active)
GI50 (HOP-92): 0.528 µM (active)
GI50 (SK-MEL-2): 0.426 µM (active)
GI50 (DMS-114): 0.197 µM (active)
GI50 (CCRF-CEM): 0.35 µM (active)
GI50 (UACC-62): 0.156 µM (active)
GI50 (K562): 0.298 µM (active)
GI50 (SR): 0.314 µM (active)
GI50 (DMS-273): 0.237 µM (active)
GI50 (SK-MEL-5): 0.216 µM (active)
GI50 (SW-620): 0.416 µM (active)
GI50 (KM-20L2): 0.197 µM (active)
GI50 (LOX IMVI): 0.288 µM (active)
GI50 (786-0): 0.428 µM (active)
GI50 (SK-OV-3): 0.385 µM (active)
GI50 (SNB-75): 0.535 µM (active)
